21 compounds from paper PMC10744269, “Frentizole, a Nontoxic Immunosuppressive Drug, and Its Analogs Display Antitumor Activity via Tubulin Inhibition” (International Journal of Molecular Sciences, 2023) can be followed below.

Some results are limits rather than exact numbers.

A word on the IC50: it is the concentration needed to halve the response being measured. Usually melting point stands for the temperature, or range, at which the solid turns liquid.

In series [1] the test system is HeLa (cervix epithelioid carcinoma cells). In words: MTT antiproliferative assay, HeLa. It is filed as cell-based, human. The settings on record: Homo sapiens, HeLa, 72 h after drug treatment, threshold 10 μM. The protocol: (§1) The cell proliferation inhibitory activity of frentizole and the synthesized analogs 2–10 against representative human cancer cell lines was assayed using the MTT method (Table 1). […] For those compounds inhibiting cell proliferation by more than 40% with respect to the untreated controls at the threshold concentration, the IC50 values were calculated by measuring the proliferation inhibition in a range of concentrations from 100 to 0.001 μM and adjusting the resulting curves to sigmoidal dose–response curves. The selected cell lines were HeLa (cervix epithelioid carcinoma cells), one of the most frequent kinds of cancer, with good sensitivity against antimitotic agents, and the glioblastoma cell lines U87MG and A172. To study the selectivity of the compounds toward cancer cells versus nontumor cells, the compounds were also evaluated against the nontumorigenic cell line HEK-293 (human embryonic kidney cells) and the murine macrophage cell line J774. Sulfonamide ABT-751, as a representative of the colchicine-site ligands, and the first-line drug for the treatment of glioblastoma multiforme temozolomide (TMZ) were used as reference compounds.
(§2) The cell lines were from ATTC (Manassas, VA, USA). HeLa (human cervix epithelioid carcinoma), U87 MG (human glioblastoma), A172 (human glioblastoma), and HEK-293 (human embryonic kidney) were grown in Dulbecco’s modified Eagle’s medium (DMEM, Gibco, Waltham, MA, USA), supplemented with 10% (v/v) heat-inactivated fetal bovine serum (HIFBS, Sigma-Aldrich, St. Louis, MO, USA), 2 mM L-glutamine, 100 μg/mL streptomycin, and 100 units/mL penicillin (Gibco, Waltham, MA, USA) at 37 °C in humidified 95% air and 5% CO2. The cells were periodically tested for Mycoplasma infection using MycoAlert kit (Lonza, Norwest, Australia), and only mycoplasma-free cells were employed in the experiments.
(§3) The effect of the compounds on the proliferation of human tumor cell lines was determined as previously described using the MTT reagent 3-[4,5-dimethylthiazol-2-yl]-2,5-diphenyltetrazolium bromide, MTT Thiazolyl Blue Tetrazolium Bromide, Sigma-Aldrich, St. Louis, MO, USA) dissolved in PBS at 5 mg/mL, according to the manufacturer’s instructions. The cells were incubated in 96-well plates (100 μL/well), in complete DMEM or RPMI 1640 medium (see above), at 37 °C and 5% CO2 atmosphere for 24 h to allow for cell attachment to the plate at the following concentrations: 30,000 cells/mL (U87MG, A172, J774, and HEK-293 cells) or 15,000 cells/mL (HeLa cells). Then, every compound was added (10 μL/well) to a final concentration of 10 μM. Untreated cells were used as negative controls. The antiproliferative activity of the compounds was measured 72 h after drug exposure using the MTT assay. The IC50 value (the drug concentration required to inhibit 50% of the cell growth in respect the untreated control) was determined for those compounds showing antiproliferative effects in the initial screening at 10 μM. For this purpose, the compounds were used at different concentrations ranging from 10^−10 to […]. Measurements were performed in triplicate and each experiment was repeated three times. The IC50 values were determined using Origin software (OriginLab, Washington, DC, USA).
(In general: Formazan colour is commonly taken as a measure of viable cells.)

Series [2] relates to nontumorigenic cell line HEK-293 (human embryonic kidney cells). In words: MTT antiproliferative assay, HEK-293. The settings on record: HEK293, 72 h after drug treatment, threshold 10 μM. It is filed as cell-based. The method, then: as §1, §2, §3
In series [3] the test system is murine macrophage cell line J774. In words: MTT antiproliferative assay, J774. It is filed as cell-based. As to conditions: Mus musculus, 72 h after drug treatment, threshold 10 μM, read-out: IC50 J-774. The method, then:
as §1, §3

Series [4] has as its system A172 (human glioblastoma). In words: MTT antiproliferative assay, A-172. As to conditions: 72 h after drug treatment, threshold 10 μM. The class given is cell-based. The method, then:
as §1, §2, §3

In series [5] the test system is U87 MG (human glioblastoma). In words: MTT antiproliferative assay, U-87 MG. The settings on record: 72 h after drug treatment, threshold 10 μM. It is filed as cell-based. The method, then:
as §1, §2, §3

As to `Cc1ccc2nc(NC(=O)Cc3ccccc3)sc2c1` [Compound 4a, N-(6-methylbenzo[d]thiazol-2-yl)-2-phenylacetamide], the melting point lay within 190 to 191 °C. The same compound returned an IC50 in series [1] of over 10 µM. In series [2], this compound yielded an IC50 of over 10 µM. Also, in series [3], the IC50 was over 10 µM. The compound further yielded an IC50 in series [4] of over 10 µM. Moreover, the IC50 in series [5] was over 10 µM.
Compound `CCOC(=O)Nc1nc2c(Br)cc(C)cc2s1` [Compound 8b, Ethyl (4-bromo-6-methylbenzo[d]thiazol-2-yl)carbamate] returned a melting point of 177 to 178 °C. The compound further had an IC50 in series [1] of over 10 µM. This compound also showed an IC50 in series [2] of over 10 µM. Besides, the IC50 in series [3] was over 10 µM. In series [4], the IC50 was over 10 µM. The compound also came in with an IC50 in series [5] of over 10 µM.
Take `Cc1cc2nc(N(C)C(=O)c3ccccc3)sc2cc1C` [Compound 3ca, N-(5,6-dimethylbenzo[d]thiazol-2-yl)-N-methylbenzamide]: the melting point was 231 °C. This compound registered an IC50 in series [1] of over 10 µM. Moreover, the IC50 in series [2] is over 10 µM. Moreover, the IC50 in series [3] was over 10 µM. For the same compound, the IC50 in series [4] is over 10 µM. Further, the IC50 in series [5] was over 10 µM.
As for `CCNC(=O)Nc1nc2ccc(OC)cc2s1` [Compound 5e, 1-Ethyl-3-(6-methoxybenzo[d]thiazol-2-yl)urea], the IC50 in series [1], in series [2], in series [3], in series [4] and in series [5] was over 10 µM in each case.
With `COc1ccc2nc(NC(=O)c3ccccc3)sc2c1` [Compound 3e, N-(6-methoxybenzo[d]thiazol-2-yl)benzamide], the IC50 in series [1], in series [2], in series [3], in series [4] and in series [5] was over 10 µM each time.
For the compound `Cc1cc2nc(NC(=O)c3ccccc3)sc2cc1C` [Compound 3c, N-(5,6-dimethylbenzo[d]thiazol-2-yl)benzamide], the melting point worked out at 210 °C. This compound also came in with an IC50 in series [1] of over 10 µM. Also, 5.68 µM corresponded to half-maximal inhibition in series [2] (IC50). Further, the IC50 in series [3] stood at 7.73 µM. Further, the concentration for half-maximal inhibition (IC50) in series [4] was over 10 µM. This compound had an IC50 in series [5] of over 10 µM.
In turn, `CCOC(=O)Nc1nc2ccc(C)cc2s1` [Compound 8a, Ethyl (6-methylbenzo[d]thiazol-2-yl)carbamate] had a melting point of 252.8 to 254 °C. Moreover, the IC50 in series [1] is over 10 µM. The compound further registered an IC50 in series [2] of over 10 µM. Besides, the IC50 in series [3] was determined as 0.26 µM. In addition, the IC50 in series [4] is over 10 µM. This compound also registered an IC50 in series [5] of over 10 µM.
Turning to `CCNC(=O)Nc1nc2ccc(C)cc2s1` [Compound 5a, 1-Ethyl-3-(6-methylbenzo[d]thiazol-2-yl)urea], the melting point lay within 312 to 313 °C. The compound also had an IC50 in series [1] of over 10 µM. The same compound came in with an IC50 in series [2] of over 10 µM. For the same compound, in series [3], the IC50 was over 10 µM. Besides, the IC50 in series [4] is over 10 µM. The compound also registered an IC50 in series [5] of over 10 µM.
In turn, `Cc1ccc2nc(NC(=O)c3ccccc3)sc2c1` [Compound 3a, N-(6-methylbenzo[d]thiazol-2-yl)benzamide] gave a melting point of 222 to 224 °C. In series [1], this compound yielded an IC50 of over 10 µM. In series [2], this compound gave an IC50 of over 10 µM. Besides, the IC50 in series [3] is over 10 µM. For the same compound, in series [4], the half-inhibitory concentration (IC50) was over 10 µM. The IC50 in series [5] was over 10 µM.
For the compound `Cc1ccc2nc(NC(=O)Oc3ccccc3)sc2c1` [Compound 9a, Phenyl (6-methylbenzo[d]thiazol-2-yl)carbamate], the melting point was 251 to 253 °C. This compound yielded an IC50 in series [1] of over 10 µM. In addition, in series [2], the IC50 was over 10 µM. In addition, the IC50 in series [3] was over 10 µM. Besides, the IC50 in series [4] is over 10 µM. In addition, the IC50 in series [5] is over 10 µM.
`Cc1cc(Br)c2c(c1)SC(NC(=O)Oc1ccccc1)N2C(=O)Oc1ccccc1` (stereo not drawn) [Compound 9b, Phenyl (4-bromo-6-methyl-N-phenoxycarbonylbenzo[d]thiazol-2-yl)carbamate]: the melting point is 100 °C.
In the case of `CCNC(=O)Nc1nc2cc(C)c(C)cc2s1` [Compound 5c, 1-(5,6-Dimethylbenzo[d]thiazol-2-yl)-3-ethylurea], the IC50 in series [1], in series [2], in series [3], in series [4] and in series [5] was over 10 µM each time.
For the compound `Cc1cc(Br)c2nc(NC(=O)Nc3ccccc3)sc2c1` [Compound 6b], the IC50 in series [1], in series [2], in series [3], in series [4] and in series [5] was over 10 µM throughout.
Consider `Cc1cc2nc(NC(=O)Nc3ccccc3)sc2cc1C` [Compound 6c, 1-(5,6-Dimethylbenzo[d]thiazol-2-yl)-3-phenylurea], for which the melting point was over 290 °C. This compound also gave an IC50 in series [1] of over 10 µM. The same compound registered an IC50 in series [2] of over 10 µM. Moreover, in series [3], the IC50 worked out at 0.27 µM. In series [4], this compound returned an IC50 of over 10 µM. This compound displayed an IC50 in series [5] of over 10 µM.
Regarding `Cc1cc(Br)c2nc(NC(=O)NCc3ccccc3)sc2c1` [Compound 7b, 1-Benzyl-3-(4-bromo-6-methylbenzo[d]thiazol-2-yl)urea], the IC50 in series [1], in series [2], in series [3], in series [4] and in series [5] was over 10 µM each time.
In turn, `Cc1ccc2nc(NC(=O)NCc3ccccc3)sc2c1` [Compound 7a, 1-Benzyl-3-(6-methylbenzo[d]thiazol-2-yl)urea] showed a melting point of 283.4 to 285.7 °C. Also, the IC50 in series [1] is over 10 µM. In series [2], this compound gave an IC50 of over 10 µM. Also, the IC50 in series [3] was over 10 µM. The IC50 in series [4] is over 10 µM. In series [5], this compound gave an IC50 of over 10 µM.
In the case of `Cc1ccc2nc(NC(=O)OCc3ccccc3)sc2c1` [Compound 10a, Benzyl (6-methylbenzo[d]thiazol-2-yl)carbamate], the melting point fell in the range of 254 to 255 °C. The compound also returned an IC50 in series [1] of over 10 µM. In series [2], this compound had an IC50 of over 10 µM. This compound came in with an IC50 in series [4] of over 10 µM. This compound yielded an IC50 in series [5] of over 10 µM.
The compound `Cc1cc2nc(N(C)C(=O)Nc3ccccc3)sc2cc1C` [Compound 6ca, 1-(5,6-Dimethylbenzo[d]thiazol-2-yl)-1-methyl-3-phenylurea] gave a melting point of 179 °C. The same compound returned an IC50 in series [1] of over 10 µM. Moreover, in series [2], the IC50 was over 10 µM. Moreover, in series [3], the IC50 is over 10 µM. This compound also had an IC50 in series [4] of over 10 µM. In addition, in series [5], the IC50 is over 10 µM.
In turn, `COc1ccc2nc(N(C)C(=O)Nc3ccccc3)sc2c1` [Compound 6ea, 1-(6-Methoxybenzo[d]thiazol-2-yl)-1-methyl-3-phenylurea] displayed a melting point of 189 °C. In addition, the half-inhibitory concentration (IC50) in series [1] was over 10 µM. The compound also registered an IC50 in series [2] of over 10 µM. Also, the IC50 in series [3] was over 10 µM. In addition, in series [4], the concentration for half-maximal inhibition (IC50) was over 10 µM. For the same compound, the IC50 in series [5] was over 10 µM.
In turn, `Cc1ccc2nc(NC(=O)Nc3ccccc3)sc2c1` [Compound 6a, 1-(6-Methylbenzo[d]thiazol-2-yl)-3-phenylurea] yielded a melting point of 327 to 329 °C. For the same compound, the IC50 in series [1] was over 10 µM. This compound returned an IC50 in series [2] of over 10 µM. For the same compound, the IC50 in series [3] is 1.97 µM. For the same compound, the IC50 in series [4] is over 10 µM. This compound also showed an IC50 in series [5] of over 10 µM.
Take `Cc1cc(Br)c2nc(NC(=O)OCc3ccccc3)sc2c1` [Compound 10b]: the IC50 in series [1], in series [2], in series [3], in series [4] and in series [5] was over 10 µM in each case.
